Measurements taken from patent publication US7521418B2, “Use of a polyene macrolide antifungal agent in combination with a glycopeptide antibacterial agent” (Theravance, Inc., priority 2003, dated 2009).

Test system: C. krusei ATCC 32672
Assay: Checkerboard MIC assay, FICI
Assay type: cell-based, Candida krusei
Conditions: combination with Compound 1; C. krusei ATCC 32672
Description: The following assay was used to determine the minimum inhibitory concentration (MIC) and fractional inhibitory concentration index (FICI) for combinations of an antifungal agent and a glycopeptide antibacterial agent. This assay and methods for calculating FICI are well known in the art. See, for example, Eliopoulos, E. G. and R. Moellering, Jr. “Antimicrobial Combinations” in Antibiotics in Laboratory Medicine, edited by V. Lorian, 4th Ed., Williams & Wilkins, Baltimore, MD, pp. 330-396 (1996); […] et al., Antimicrobial Agents and Chemotherapy 47(4):1416-1418 (2003); or […] et al., Antimicrobial Agents and Chemotherapy 46(10):3323-3326 (2002). Procedures, protocols, supplies and equipment used in this assay follow the recommendations approved and published by the National Committee for Clinical Laboratory Standards (NCCLS), Wayne, Pa. as described in NCCLS 2003, “Reference Method for Broth Dilution Antimicrobial Susceptibility Tests for Bacteria that Grow Aerobically; Approved Standard” (NCCLS document M7-A6); NCCLS 2002, “Reference Method for Broth Dilution Antifungal Susceptibility Tests of Filamentous Fungi that Grow Aerobically; Approved Standard” (NCCLS document M38-A); and NCCLS 2002 “Reference Method for Broth Dilution Antifungal Susceptibility Tests of Yeast; Approved Standards-2nd Edition” (NCCLS document M27-A2). Using a checkerboard method, a 2-fold dilution 100× final concentration master plate was prepared using a 96-well U-shape microtiter plate and an appropriate solvent. In the “checkerboard” method, a microtiter plate is divided into “columns” in which each well in the column contains the same amount of an antifungal agent (Compound A) being diluted along the x-axis, and “rows” in which each well in the row contains the same amount of a glycopeptide antibacterial agent (Compound B) being diluted on the y-axis. Also included is a row (or column) for Compound A or B alone. The dilutions used in the checkerboard are exponential (by powers of two). The result is that each well in the microtiter plate contains a unique concentration of the two compounds being tested. […] After mixing, 100 μL of 2× drug combinations were distributed into 96-well microtiter plates. […] Compound A was not added to Column 12, so Column 12 contained only Compound B. Compound B was diluted from row A starting at 6,400 μg/mL down to row G (100 μg/mL). Wells in Row A contained a final concentration of 64 μg/mL of Compound B; Row B contained a final concentration of 32 μg/mL of Compound B; Row C contained a final concentration of 16 μg/mL of Compound B; etc. Compound B was not added to Row H, so Row H only contained Compound A. […] The MIC of the glycopeptide antibacterial agent determined from this experiment was used in FIC calculations. […] RPMI-1640 without sodium bicarbonate media (GIBCO-BRL, Carlsbad, Calif.), an enriched media formulated for mammalian cells, was used according to the NCCLS guidelines for yeast and filamentous fungi susceptibility testing. The medium was buffered with 0.165 M 3-[N-Morpholino]propanesulfonic acid (MOPS) supplemented with 20 g/L glucose and pH adjusted to 7.0 with hydrogen chloride. Sabouraud Dextrose Agar ([…] plates, and Potato Dextrose Agar (PDA) plates were purchased from Hardy Diagnostic (Santa Maria, Calif.). Yeast cultures were started from -80° C. frozen stock streaked on […] incubated at 35° C. under aerobic conditions for 24 h. The […] in the refrigerator for up to 2 weeks and used regularly as a starting culture. About 24 to 48 h before each assay was run, yeasts were streaked on SDA plates for isolated colonies. To prepare the inoculum, from one to four colonies were resuspended in 5 mL of saline, and vortexed for 15 sec. […] For most yeast and mold cultures, the optical density (OD) of the suspension was adjusted to 0.11 in saline to provide 0.4×10^6 CFU/mL. However, for Fusarium moniliforme and Pseudallescheria boydii the OD of the suspension was adjusted to OD=0.17 to provide 0.4×10^6 CFU/mL. […]

| SMILES | FICI |
| --- | --- |
| C[C@@H]1[C@H](O)[C@@H](C)/C=C/C=C/C=C/C=C/C=C/C=C/C=C/[C@H](O[C@@H]2O[C@H](C)[C@@H](O)[C@H](N)[C@@H]2O)C[C@@H]2O[C@](O)(C[C@@H](O)C[C@@H](O)[C@H](O)CC[C@@H](O)C[C@@H](O)CC(=O)O[C@H]1C)C[C@H](O)[C@H]2C(=O)O [Amphotericin B] | 0.31 |
| C[C@@H]1[C@H](O)[C@@H](C)/C=C/C=C/CC/C=C/C=C/C=C/C=C/C(O[C@H]2O[C@H](C)[C@@H](O)[C@H](N)[C@@H]2O)CC2O[C@](O)(CC(O)C(O)CCC(O)CC(O)CC(O)CC(=O)O[C@H]1C)CC(O)C2C(=O)O (some centres unmarked) [Nystatin] | 0.50 |
